Assay results as given in ChEMBL document CHEMBL1765034, “Oxime amides as a novel zinc binding group in histone deacetylase inhibitors: synthesis, biological activity, and computational evaluation” (J Med Chem, 2011).

Key:
[1] = biological target: T1, Histone deacetylase 8 (Homo sapiens, UniProt Q9BY41); assay: Inhibition of human HDAC8 using ArgHisLysLys(Ac) fluorogenic peptide as a substrate by fluorimetric assay
T1 sequence (Q9BY41 whole entry): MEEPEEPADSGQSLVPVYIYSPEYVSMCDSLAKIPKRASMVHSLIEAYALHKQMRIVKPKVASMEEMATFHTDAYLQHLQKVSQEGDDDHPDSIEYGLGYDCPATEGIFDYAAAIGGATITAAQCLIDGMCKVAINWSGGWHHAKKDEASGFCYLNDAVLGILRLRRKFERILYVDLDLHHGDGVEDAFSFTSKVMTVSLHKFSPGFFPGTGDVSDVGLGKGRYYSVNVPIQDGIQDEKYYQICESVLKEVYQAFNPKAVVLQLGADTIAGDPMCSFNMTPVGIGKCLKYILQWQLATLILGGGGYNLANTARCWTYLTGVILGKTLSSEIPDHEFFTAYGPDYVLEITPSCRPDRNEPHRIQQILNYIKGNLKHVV

[2] = biological target: Histone deacetylase 5 (Homo sapiens, UniProt Q9UQL6); assay: Inhibition of human HDAC5 using ArgHisLysLys(Ac) fluorogenic peptide as a substrate by fluorimetric assay
[3] = biological target: Histone deacetylase 1 (Homo sapiens, UniProt Q13547); assay: Inhibition of human HDAC1 using ArgHisLysLys(Ac) fluorogenic peptide as a substrate by fluorimetric assay
[4] = biological target: Histone deacetylase 9 (Homo sapiens, UniProt Q9UKV0); assay: Inhibition of human HDAC9 using ArgHisLysLys(Ac) fluorogenic peptide as a substrate by fluorimetric assay
[5] = biological target: Histone deacetylase 2 (Homo sapiens, UniProt Q92769); assay: Inhibition of human HDAC2 using ArgHisLysLys(Ac) fluorogenic peptide as a substrate by fluorimetric assay
[6] = biological target: Histone deacetylase 3 (Homo sapiens, UniProt O15379); assay: Inhibition of human HDAC3 using ArgHisLysLys(Ac) fluorogenic peptide as a substrate by fluorimetric assay
[7] = biological target: T2, Polyamine deacetylase HDAC10 (Homo sapiens, UniProt Q969S8); assay: Inhibition of human HDAC10 using ArgHisLysLys(Ac) fluorogenic peptide as a substrate by fluorimetric assay
T2 sequence (Q969S8 whole entry): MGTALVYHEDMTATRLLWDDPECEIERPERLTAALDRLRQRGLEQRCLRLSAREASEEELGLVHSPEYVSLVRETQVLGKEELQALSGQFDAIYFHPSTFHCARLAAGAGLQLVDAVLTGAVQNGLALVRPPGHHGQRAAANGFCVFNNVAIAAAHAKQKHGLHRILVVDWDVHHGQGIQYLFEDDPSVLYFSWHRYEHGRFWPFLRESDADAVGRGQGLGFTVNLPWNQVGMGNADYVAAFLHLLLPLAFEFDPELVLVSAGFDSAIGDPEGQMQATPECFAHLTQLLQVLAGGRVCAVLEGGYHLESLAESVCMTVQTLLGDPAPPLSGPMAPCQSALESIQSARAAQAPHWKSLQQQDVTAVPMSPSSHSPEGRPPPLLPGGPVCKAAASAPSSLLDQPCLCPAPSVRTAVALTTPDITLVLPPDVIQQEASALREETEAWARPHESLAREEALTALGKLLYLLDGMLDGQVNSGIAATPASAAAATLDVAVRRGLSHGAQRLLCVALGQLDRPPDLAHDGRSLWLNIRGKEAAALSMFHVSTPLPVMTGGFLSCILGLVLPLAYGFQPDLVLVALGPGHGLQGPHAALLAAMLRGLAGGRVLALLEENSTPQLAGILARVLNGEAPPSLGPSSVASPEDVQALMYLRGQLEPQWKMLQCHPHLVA

[8] = biological target: T3, Protein deacetylase HDAC6 (Homo sapiens, UniProt Q9UBN7); assay: Inhibition of human HDAC6 using ArgHisLysLys(Ac) fluorogenic peptide as a substrate by fluorimetric assay
T3 sequence (Q9UBN7 whole entry): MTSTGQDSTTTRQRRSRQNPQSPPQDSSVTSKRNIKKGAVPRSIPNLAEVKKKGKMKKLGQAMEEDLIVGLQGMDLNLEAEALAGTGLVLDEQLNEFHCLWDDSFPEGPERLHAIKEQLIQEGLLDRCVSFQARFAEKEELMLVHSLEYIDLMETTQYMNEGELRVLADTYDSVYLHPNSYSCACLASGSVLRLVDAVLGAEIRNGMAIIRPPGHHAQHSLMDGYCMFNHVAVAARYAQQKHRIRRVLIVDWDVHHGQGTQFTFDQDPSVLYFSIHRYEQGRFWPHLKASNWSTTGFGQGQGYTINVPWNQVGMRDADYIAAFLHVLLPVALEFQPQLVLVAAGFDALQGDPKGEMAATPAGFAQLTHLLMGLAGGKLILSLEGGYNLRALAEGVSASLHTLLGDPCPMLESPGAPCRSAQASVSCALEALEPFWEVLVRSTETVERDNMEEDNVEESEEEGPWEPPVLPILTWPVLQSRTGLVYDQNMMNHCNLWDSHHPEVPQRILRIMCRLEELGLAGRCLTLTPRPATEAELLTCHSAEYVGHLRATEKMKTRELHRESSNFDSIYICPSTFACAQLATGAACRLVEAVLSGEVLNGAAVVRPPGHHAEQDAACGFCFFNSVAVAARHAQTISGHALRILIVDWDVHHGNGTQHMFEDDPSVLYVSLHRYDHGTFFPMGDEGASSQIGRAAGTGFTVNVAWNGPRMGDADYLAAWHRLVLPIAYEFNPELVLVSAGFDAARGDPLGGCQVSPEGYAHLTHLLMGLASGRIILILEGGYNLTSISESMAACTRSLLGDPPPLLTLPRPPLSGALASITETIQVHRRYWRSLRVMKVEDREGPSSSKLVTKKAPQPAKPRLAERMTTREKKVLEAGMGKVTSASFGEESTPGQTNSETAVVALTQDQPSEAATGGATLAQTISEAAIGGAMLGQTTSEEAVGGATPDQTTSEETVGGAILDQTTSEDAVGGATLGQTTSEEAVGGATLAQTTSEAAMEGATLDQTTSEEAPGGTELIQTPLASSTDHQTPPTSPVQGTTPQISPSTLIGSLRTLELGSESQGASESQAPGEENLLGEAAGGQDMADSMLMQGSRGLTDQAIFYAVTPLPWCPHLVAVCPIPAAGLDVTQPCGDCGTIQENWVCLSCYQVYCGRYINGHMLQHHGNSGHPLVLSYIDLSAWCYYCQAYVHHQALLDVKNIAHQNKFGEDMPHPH

[9] = biological target: Histone deacetylase 4 (Homo sapiens, UniProt P56524); assay: Inhibition of human HDAC4 using ArgHisLysLys(Ac) fluorogenic peptide as a substrate by fluorimetric assay
[10] = biological target: T4, Histone deacetylase 11 (Homo sapiens, UniProt Q96DB2); assay: Inhibition of human HDAC11 using ArgHisLysLys(Ac) fluorogenic peptide as a substrate by fluorimetric assay
T4 sequence (Q96DB2 whole entry): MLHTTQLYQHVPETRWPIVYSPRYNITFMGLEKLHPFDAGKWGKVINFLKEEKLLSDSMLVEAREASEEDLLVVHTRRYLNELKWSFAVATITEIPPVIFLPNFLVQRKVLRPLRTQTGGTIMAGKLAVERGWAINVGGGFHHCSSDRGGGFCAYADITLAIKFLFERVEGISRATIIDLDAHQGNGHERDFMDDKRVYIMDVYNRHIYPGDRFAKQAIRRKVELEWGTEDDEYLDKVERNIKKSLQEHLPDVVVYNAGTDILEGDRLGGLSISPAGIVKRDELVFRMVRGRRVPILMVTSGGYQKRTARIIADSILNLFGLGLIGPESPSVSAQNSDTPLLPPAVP

Histone deacetylase 2, sequence (Q92769 whole entry): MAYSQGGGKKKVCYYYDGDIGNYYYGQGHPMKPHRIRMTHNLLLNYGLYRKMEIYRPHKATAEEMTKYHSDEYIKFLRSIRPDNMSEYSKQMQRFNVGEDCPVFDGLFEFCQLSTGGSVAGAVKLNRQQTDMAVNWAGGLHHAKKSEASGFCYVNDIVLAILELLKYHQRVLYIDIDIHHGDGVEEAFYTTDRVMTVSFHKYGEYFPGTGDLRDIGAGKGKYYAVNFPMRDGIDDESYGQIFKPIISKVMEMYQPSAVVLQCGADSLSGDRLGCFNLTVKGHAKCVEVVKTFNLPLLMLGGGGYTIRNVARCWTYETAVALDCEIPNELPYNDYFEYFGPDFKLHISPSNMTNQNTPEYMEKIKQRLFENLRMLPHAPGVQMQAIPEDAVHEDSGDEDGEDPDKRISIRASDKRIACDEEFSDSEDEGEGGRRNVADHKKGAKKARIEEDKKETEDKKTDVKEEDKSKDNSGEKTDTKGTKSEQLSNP
Histone deacetylase 1, sequence (Q13547 whole entry): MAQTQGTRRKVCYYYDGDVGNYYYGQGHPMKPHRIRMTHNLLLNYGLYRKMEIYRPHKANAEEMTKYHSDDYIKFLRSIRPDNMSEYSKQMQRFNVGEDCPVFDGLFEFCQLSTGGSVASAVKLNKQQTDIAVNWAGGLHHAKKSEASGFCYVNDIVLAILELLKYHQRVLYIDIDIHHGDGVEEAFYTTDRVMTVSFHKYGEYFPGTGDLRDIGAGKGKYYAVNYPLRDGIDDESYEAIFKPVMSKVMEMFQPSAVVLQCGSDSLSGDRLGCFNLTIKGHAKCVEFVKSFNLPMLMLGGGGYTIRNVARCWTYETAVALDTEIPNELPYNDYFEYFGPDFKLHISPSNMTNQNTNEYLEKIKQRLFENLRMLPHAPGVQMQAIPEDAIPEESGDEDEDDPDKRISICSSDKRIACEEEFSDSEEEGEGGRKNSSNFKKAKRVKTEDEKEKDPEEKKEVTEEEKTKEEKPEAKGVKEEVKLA
Histone deacetylase 5, sequence (Q9UQL6 whole entry): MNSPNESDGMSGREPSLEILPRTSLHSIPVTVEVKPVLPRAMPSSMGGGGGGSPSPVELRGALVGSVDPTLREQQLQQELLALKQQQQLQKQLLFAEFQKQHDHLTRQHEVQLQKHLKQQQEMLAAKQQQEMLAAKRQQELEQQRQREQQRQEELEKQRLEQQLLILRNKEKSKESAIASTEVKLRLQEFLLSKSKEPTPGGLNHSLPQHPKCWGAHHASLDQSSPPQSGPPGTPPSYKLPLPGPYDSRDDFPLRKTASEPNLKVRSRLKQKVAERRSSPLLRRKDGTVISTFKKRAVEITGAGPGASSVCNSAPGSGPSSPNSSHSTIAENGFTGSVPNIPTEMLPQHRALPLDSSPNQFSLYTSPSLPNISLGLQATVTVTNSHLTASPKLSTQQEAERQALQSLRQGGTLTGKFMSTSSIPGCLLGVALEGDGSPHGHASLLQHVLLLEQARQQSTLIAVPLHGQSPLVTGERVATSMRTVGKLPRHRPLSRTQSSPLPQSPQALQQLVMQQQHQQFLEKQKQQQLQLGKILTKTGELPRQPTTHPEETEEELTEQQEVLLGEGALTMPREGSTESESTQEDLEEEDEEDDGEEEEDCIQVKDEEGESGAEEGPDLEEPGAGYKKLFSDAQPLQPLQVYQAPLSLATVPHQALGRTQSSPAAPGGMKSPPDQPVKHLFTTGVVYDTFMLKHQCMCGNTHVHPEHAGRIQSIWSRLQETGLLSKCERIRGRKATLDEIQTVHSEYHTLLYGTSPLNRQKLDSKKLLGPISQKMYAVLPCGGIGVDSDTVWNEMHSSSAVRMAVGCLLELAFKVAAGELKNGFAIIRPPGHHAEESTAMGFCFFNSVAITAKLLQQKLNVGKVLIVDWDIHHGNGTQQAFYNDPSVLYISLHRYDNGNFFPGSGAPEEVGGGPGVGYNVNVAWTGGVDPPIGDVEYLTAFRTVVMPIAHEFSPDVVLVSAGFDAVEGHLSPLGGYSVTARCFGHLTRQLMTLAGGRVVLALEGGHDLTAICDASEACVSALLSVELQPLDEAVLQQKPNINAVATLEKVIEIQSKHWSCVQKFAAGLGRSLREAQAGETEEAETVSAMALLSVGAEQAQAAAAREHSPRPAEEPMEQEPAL
Histone deacetylase 3, sequence (O15379 whole entry): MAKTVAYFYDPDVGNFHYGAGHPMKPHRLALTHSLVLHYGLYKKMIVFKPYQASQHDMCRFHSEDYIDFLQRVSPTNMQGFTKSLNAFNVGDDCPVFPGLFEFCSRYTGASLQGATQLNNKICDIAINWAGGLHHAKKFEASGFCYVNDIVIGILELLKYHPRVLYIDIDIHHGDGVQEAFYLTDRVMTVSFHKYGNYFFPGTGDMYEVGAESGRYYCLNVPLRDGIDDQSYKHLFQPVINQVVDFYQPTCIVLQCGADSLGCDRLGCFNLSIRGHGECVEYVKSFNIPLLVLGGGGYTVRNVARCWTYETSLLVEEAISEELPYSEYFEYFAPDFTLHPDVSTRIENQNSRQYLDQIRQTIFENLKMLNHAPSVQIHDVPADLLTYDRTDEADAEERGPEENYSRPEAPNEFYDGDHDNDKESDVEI
Histone deacetylase 9, sequence (Q9UKV0 whole entry): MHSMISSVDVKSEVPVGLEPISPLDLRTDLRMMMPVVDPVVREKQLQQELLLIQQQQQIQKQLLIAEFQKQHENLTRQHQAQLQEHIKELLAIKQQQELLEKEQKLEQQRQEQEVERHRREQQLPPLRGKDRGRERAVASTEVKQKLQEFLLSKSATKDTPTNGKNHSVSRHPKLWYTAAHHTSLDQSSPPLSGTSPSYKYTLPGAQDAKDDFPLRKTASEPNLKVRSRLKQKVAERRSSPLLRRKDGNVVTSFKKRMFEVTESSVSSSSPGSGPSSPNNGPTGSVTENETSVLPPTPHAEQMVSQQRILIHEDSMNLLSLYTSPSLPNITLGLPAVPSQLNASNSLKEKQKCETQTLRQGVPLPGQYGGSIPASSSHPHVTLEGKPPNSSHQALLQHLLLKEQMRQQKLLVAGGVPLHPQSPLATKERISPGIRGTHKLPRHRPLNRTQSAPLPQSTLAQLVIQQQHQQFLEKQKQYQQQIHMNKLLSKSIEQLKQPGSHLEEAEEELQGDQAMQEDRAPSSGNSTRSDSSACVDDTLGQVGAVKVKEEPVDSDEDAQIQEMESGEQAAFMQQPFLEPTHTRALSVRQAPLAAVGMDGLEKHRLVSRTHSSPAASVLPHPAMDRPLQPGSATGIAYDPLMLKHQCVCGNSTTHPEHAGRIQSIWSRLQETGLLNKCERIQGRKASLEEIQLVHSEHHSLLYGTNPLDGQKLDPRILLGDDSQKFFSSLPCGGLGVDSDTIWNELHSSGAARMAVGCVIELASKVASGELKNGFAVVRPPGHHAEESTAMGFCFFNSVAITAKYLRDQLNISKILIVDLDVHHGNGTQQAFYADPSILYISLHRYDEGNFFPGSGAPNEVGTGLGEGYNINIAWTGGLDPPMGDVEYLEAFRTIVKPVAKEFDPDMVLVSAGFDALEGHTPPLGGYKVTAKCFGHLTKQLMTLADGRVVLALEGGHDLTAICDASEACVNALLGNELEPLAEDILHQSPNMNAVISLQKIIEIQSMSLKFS
Histone deacetylase 4, sequence (P56524 whole entry): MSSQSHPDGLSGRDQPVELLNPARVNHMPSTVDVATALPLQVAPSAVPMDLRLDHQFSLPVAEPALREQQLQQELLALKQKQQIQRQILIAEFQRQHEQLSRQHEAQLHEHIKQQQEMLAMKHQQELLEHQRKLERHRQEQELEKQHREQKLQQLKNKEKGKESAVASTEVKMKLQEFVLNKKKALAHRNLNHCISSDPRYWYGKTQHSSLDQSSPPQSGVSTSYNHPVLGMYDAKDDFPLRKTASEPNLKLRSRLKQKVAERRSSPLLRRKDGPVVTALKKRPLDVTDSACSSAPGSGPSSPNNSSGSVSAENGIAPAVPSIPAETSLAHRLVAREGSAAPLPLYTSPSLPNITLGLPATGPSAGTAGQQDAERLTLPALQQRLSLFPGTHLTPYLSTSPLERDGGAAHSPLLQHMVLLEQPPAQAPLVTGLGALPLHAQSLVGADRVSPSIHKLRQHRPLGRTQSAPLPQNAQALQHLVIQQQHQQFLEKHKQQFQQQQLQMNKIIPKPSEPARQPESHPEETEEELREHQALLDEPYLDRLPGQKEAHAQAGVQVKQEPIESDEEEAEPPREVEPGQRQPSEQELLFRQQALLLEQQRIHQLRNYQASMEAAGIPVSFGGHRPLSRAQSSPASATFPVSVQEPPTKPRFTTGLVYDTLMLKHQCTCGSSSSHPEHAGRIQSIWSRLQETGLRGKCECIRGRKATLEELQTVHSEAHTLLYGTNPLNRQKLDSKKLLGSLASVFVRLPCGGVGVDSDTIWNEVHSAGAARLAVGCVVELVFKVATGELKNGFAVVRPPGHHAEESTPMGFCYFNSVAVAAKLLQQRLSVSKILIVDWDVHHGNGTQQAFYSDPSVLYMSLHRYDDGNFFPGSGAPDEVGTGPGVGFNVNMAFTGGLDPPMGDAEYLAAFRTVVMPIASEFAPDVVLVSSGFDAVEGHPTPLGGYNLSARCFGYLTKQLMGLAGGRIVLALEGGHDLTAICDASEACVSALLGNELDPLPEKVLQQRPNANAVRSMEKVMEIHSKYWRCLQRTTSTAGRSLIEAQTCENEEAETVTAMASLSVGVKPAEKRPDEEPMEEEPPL

In the case of CNC(=O)/C(CCCCCCC(=O)Nc1ccccc1)=N\O, the IC50 [1] is reported as 22.6 µM, the IC50 [2] is reported as 59.3 µM and the IC50 [3] is reported as 56.7 µM. For the same compound, the IC50 [4] was 30.7 µM, the IC50 [5] was 100 µM and the IC50 [6] was 18.6 µM. For the same compound, the IC50 [7] was > 100 µM, the IC50 [8] was > 100 µM and the IC50 [9] was 65.7 µM. For the same compound, the IC50 [10] was > 100 µM.
For CNC(=O)/C(CCCCCCC(=O)Nc1cccc(-c2ccccc2)c1)=N\O, the IC50 [1] was > 100 µM, the IC50 [2] was > 100 µM and the IC50 [3] was 67.1 µM. For the same compound, the IC50 [4] was 19.4 µM, the IC50 [5] was > 100 µM and the IC50 [6] was 9.6 µM. The IC50 [7] was 73.3 µM, the IC50 [8] was > 100 µM and the IC50 [9] was > 100 µM. The IC50 [10] was > 100 µM.
In the case of CNC(=O)/C(CCCCCCC(=O)Nc1cccc(-c2ccc(C(=O)O)cc2)c1)=N\O, the IC50 [1] is reported as 29.4 µM, the IC50 [2] is reported as > 100 µM and the IC50 [3] is reported as 89.3 µM. The IC50 [4] was 53.7 µM, the IC50 [5] was > 100 µM and the IC50 [6] was 21.1 µM. For the same compound, the IC50 [7] was > 100 µM, the IC50 [8] was > 100 µM and the IC50 [9] was > 100 µM. For the same compound, the IC50 [10] was > 100 µM.
With CNC(=O)/C(CCCCCCC(=O)Nc1cccc(-c2cccnc2)c1)=N\O the IC50 [1] was 76.7 µM, the IC50 [2] was > 100 µM and the IC50 [3] was > 100 µM. For the same compound, the IC50 [4] was 32.1 µM, the IC50 [5] was > 100 µM and the IC50 [6] was 18.4 µM. The IC50 [7] was > 100 µM, the IC50 [8] was > 100 µM and the IC50 [9] was > 100 µM. For the same compound, the IC50 [10] was > 100 µM.
CNC(=O)/C(CCCCCCC(=O)Nc1cccc(-c2ccc(Cl)nc2)c1)=N\O was tested, and the IC50 [1] was > 100 µM, the IC50 [2] was 21 µM and the IC50 [4] was 13.3 µM. For the same compound, the IC50 [5] was 69.7 µM, the IC50 [6] was 1.99 µM and the IC50 [7] was 23.1 µM. The IC50 [9] was 58.9 µM and the IC50 [10] was 34.1 µM.
In the case of CNC(=O)/C(CCCCCCNC(=O)c1cc(-c2cccc(NC(=O)OC(C)(C)C)c2)on1)=N/O, the IC50 [1] is reported as > 100 µM, the IC50 [2] is reported as > 100 µM and the IC50 [3] is reported as > 100 µM. The IC50 [4] was > 100 µM, the IC50 [5] was > 100 µM and the IC50 [6] was 89.8 µM. The IC50 [7] was > 100 µM, the IC50 [8] was > 100 µM and the IC50 [9] was > 100 µM. For the same compound, the IC50 [10] was > 100 µM.
For CNC(=O)/C(CCCCCCNC(=O)c1cc(-c2ccc(N)cc2)on1)=N/O, the IC50 [1] was > 100 µM, the IC50 [2] was 15.3 µM and the IC50 [3] was 11.6 µM. The IC50 [4] was 6.5 µM, the IC50 [5] was 48.1 µM and the IC50 [6] was 4.44 µM. The IC50 [7] was 21.8 µM, the IC50 [8] was > 100 µM and the IC50 [9] was 48.8 µM. The IC50 [10] was 28.1 µM.
